# Data taken from patent US8455442B2, “Peptides having binding affinity to an antibody which recognizes an epitope on an α1 loop 2 or β2 loop 1 of an adrenoreceptor” (MDC Max-Delbruck-Centrum fur Molekulare Medizin Berlin-Buch, priority 2008, dated 2013).
# Legend:
# α1 adrenergic receptor = assay: Antagonist block of patient-antibody stimulation of the beating rate of cultured neonatal rat cardiomyocytes; type: cell-based; conditions: FIG. 1; prazosin given in addition to ICI 118,551; patient immunoglobulins on rat cardiomyocytes
# Text: (§1) Preparation of the immunoglobulin fraction.
# (§2) The buffer was changed five times during dialysis.
# [1] = test system: antibodies from patients with Morbus Alzheimer directed to the β2 Adrenoceptor; assay: Peptide neutralization of the antibody-mediated increase of the beating rate (neonatal rat cardiomyocyte bioassay); type: cell-based, human; conditions: FIG. 3; overlapping epitope peptides of loop 1 of the β2-AR co-incubated with patient immunoglobulins (n=6)
# Protocol: as §1, §2
# (§3) After the dialysis, the IgG fractions feature a concentration of 10-15 mg/ml, a maximum of 10 μg/ml of which are specific receptor antibodies. 50 μl of this IgG solution are pre-incubated with the peptides with the following concentration of peptides: 5 μl of a buffered solution of 100 μg/ml per 50 μl IgG solution. This mixture is pre-incubated at room temperature for 30 minutes and subsequently filled into the cell culture vials, after the former nutrient solution has been removed by pipet. The amount of the medium is 2 ml. The final concentration therefore is of […] for the IgG and 0.5 μg for the peptides. If the molecular weight of the peptide (10 mer) is set with 1 KD and that of the IgG is set with 150 KD, there is an excess of […].
# (§4) For the neutralization experiments, synthetic peptides corresponding to the sequence of the three extracellular loops of the human β2 AR or α1A-AR was added in excess (0.5 μg in 50 μl) to 50 μl of the immunoglobulin fraction. The mixtures were shaken and incubated at room temperature for 1 h. The 100-μl samples were then added to neonatal rat heart muscle cells cultured in 2 ml medium to a final dilution of 1:40. The beating rate was counted for 15 s, about 60 min after the addition of the peptide/immunoglobulin mixture. […]
# [2] = test system: antibodies from patients with Morbus Alzheimer directed to the α1A Adrenoceptor; assay: as above; type: cell-based, human; conditions: FIG. 6; overlapping peptides of the second extracellular loop of the α1A Adrenoceptor co-incubated with patient immunoglobulins (n=5)
# Protocol: as §1, §2, §3, §4
molecule,measurement,setting,value
COc1cc2nc(N3CCN(C(=O)c4ccco4)CC3)nc(N)c2cc1OC [prazosin],inhibition of cellular activity of contraction,α1 adrenergic receptor,more effective inhibition
FGNFWCE,neutralisation of antibody mediated increase of the beating rate,[1],neutralisation
APEDET [peptide embedded in the second extracellular loop of the α1A Adrenoceptor],neutralisation of the cellular activity of the immunoglobulins,[2],neutralises
